Experimental data reported in publication PMC4991342 (Virulence, 2016).

Tests used:
[1] = tested on: mouse lymphoma L5178Y/TK^+/− cells (clone 3.7.2C); test: In vitro mammalian cell gene mutation test; format: cell-based; conditions: 4 h without S9-mix
P. falciparum malaria = conditions: oral monotherapy; clinical phase II; cited from earlier work
[2] = tested on: acute urinary tract infections; conditions: 70 patients with acute urinary tract infections; no details published; cited from earlier work
[3] = biological target: recombinant P. falciparum DXP reductoisomerase; conditions: read-out: IC50 for recombinant P. falciparum DXP reductoisomerase; cited from earlier work

**Q.** With `COS(C)(=O)=O` [MMS, methyl methanesulfonate] as the molecule, how does the “MF (mutant frequency)” value ([1]; MMS 10 µg/ml (positive control), relevant increase) read?
**A.** Its value is 475.5 × 10^−6.

**Q.** What about the “mean MF compared to the negative controls” value ([1]; MMS 10 µg/ml) of the same molecule?
**A.** Its value is 626%.

**Q.** Which recrudescence (P. falciparum malaria) does the source give for `O=CN(O)CCCP(=O)(O)O` [fosmidomycin] here?
**A.** Its recrudescence is “high rate of recrudescent infections”.

**Q.** What about the antibacterial efficacy [2] of the same molecule?
**A.** The antibacterial efficacy was “strong antibacterial efficacy”.

**Q.** What about the IC50 [3] of the same molecule?
**A.** Its IC50 is 32 nM.
